{"source": "patent US20240075093A1", "about": "“COMPOSITIONS AND METHODS OF TREATING A PI3K MEDIATED DISEASE” (VIRGINIA TECH INTELLECTUAL PROPERTIES, INC., priority 2020, published 2024)", "key": {"astrocytes": {"system": "astrocytes", "assay": "MTS cell viability assay", "format": "cell-based, human", "details": "20 uM TGX-221 and 50 uM TMZ, 4 days", "description": "(§1) Cell viability was measured by the MTS assay. P values were determined using the student t test or one-way ANOVA. Error bars represent three independent experiments.\n(FIG. 46A) The effect of the αCT1/GSK/TMZ combo in VTC-103 cells. […] (FIG. 46B) The effect of the αCT1/GSK/TMZ combo in LN229 cells. (FIG. 46C) EOB scores of drug combinations in VTC-103 and LN229 cells. […] (FIG. 46E) EOB scores of drug combinations in astrocytes. One-way ANOVA with Dunnett test for correction of multiple comparisons or Student's t test was used to determine statistical significance. *: P<0.05; ns: not significant. Drug combinations with strong synergistic effect were marked in red.\n(§2) Cell viability was determined by the MTS cell viability assay (Promega) as described previously 21,24-27. In brief, 250 to 1,000 cells were plated in the wells of a 96-well plate-based upon the cell growth rate. Because the drug treatment usually takes 6-7 days, fast-growing cells could be over-grown if plated at a high cell density. […] At each hour time point, the absorbance at 490 nm was measured using a FilterMax F3 microplate reader (Molecular Devices, LLC) according to the manufacturer's instructions. Percent cell viability was obtained by dividing the absorbance of treatment groups to those of untreated and respective vehicle control groups."}, "U87MG cells": {"system": "U87MG cells", "assay": "MTS cell viability assay", "format": "cell-based, human", "details": "20 uM TGX-221 and 50 uM TMZ, 4 days, MTS", "description": "as §1\nCell viability was determined using the MTS viability assay. The vehicle DMSO was the control and set as 100%. Treated cells were normalized to DMSO-treated cells. […] (FIG. 43D) Scores of Excess Over Bliss in FIG. 43C calculated using the Bliss Independence model. One-way ANOVA and student t test were used to determine statistical significance.\nas §2, with “density. For αCT1 treatment experiments, Applicant intended to plate cells at a low density to minimize the formation of gap junctions, and thus, more Cx43-hemichannels can be present.” for “density.”"}, "SF295 cells": {"system": "SF295 cells", "assay": "MTS cell viability assay", "format": "cell-based", "details": "20 uM TGX-221 and 50 uM TMZ, 4 days", "description": "(FIG. 12A) p110βC2in. CPP: cell-penetrating peptide. Simulated p110βC2in (rainbow as represented in greyscale) is shown. (FIG. 12B) FITC-p110βC2in in LN229/GSCs was imaged using a fluorescence microscope. Upper: FITC; lower: bright view. (FIG. 12C) PI3K/AKT activity affected by 100 μM p110βC2in (+) or C2Scramble-1 (−). (FIG. 12D) MTS Cell viability assay. Cells were treated with 50 μM peptides for 4 days. Student t test was used to determine P values.\nas §1\nThis scheme has been repeated in experiments presented hereafter. Cell viability was determined using the MTS viability assay. Percentages of cell viability were obtained by normalizing the MTS readings of treatment groups to that of DMSO group. (FIG. 34B) Scores of Excess Over Bliss (EOB) calculated using the Bliss Independence model. The drug combination is synergistic if EOB is more than 0%, additive if EOB equals to 0%, or antagonistic if EOB is less than 0%. […] (FIG. 34D) EOB scores of drug combinations in LN229 and VTC-001 cells. (FIG. 34E) Caspase 3/7 activity in VTC-103 and VTC-001 cells. The activity of cleaved caspase 3/7 (active) was determined using a luminescence assay. Shown are luminescence readings. (FIG. 34F) EOB scores of drug combinations in VTC-103 and VTC-001 cells. […] SF295 cells were subcutaneously injected into immuno-deficient mice. […] Tumor volumes are shown. […] Cell viability was determined using the MTS viability assay. Percentages of cell viability were obtained by normalizing the MTS readings of treatment groups to that of shNS group. […]\nCell viability was determined by the MTS cell viability assay (Promega) as described previously 21,24-27. […] At each hour time point, the absorbance at 490 nm was measured using a FilterMax F3 microplate reader (Molecular Devices, LLC) according to the manufacturer's instructions. Percent cell viability was obtained by dividing the absorbance of treatment groups to those of untreated and respective vehicle control groups."}, "tumor growth in mice": {"system": "tumor growth in mice", "assay": "GBM tumor growth in mice", "format": "in vivo"}, "p110c": {"target": "p110c (Homo sapiens, UniProt P42336)", "sequence (P42336 whole entry)": "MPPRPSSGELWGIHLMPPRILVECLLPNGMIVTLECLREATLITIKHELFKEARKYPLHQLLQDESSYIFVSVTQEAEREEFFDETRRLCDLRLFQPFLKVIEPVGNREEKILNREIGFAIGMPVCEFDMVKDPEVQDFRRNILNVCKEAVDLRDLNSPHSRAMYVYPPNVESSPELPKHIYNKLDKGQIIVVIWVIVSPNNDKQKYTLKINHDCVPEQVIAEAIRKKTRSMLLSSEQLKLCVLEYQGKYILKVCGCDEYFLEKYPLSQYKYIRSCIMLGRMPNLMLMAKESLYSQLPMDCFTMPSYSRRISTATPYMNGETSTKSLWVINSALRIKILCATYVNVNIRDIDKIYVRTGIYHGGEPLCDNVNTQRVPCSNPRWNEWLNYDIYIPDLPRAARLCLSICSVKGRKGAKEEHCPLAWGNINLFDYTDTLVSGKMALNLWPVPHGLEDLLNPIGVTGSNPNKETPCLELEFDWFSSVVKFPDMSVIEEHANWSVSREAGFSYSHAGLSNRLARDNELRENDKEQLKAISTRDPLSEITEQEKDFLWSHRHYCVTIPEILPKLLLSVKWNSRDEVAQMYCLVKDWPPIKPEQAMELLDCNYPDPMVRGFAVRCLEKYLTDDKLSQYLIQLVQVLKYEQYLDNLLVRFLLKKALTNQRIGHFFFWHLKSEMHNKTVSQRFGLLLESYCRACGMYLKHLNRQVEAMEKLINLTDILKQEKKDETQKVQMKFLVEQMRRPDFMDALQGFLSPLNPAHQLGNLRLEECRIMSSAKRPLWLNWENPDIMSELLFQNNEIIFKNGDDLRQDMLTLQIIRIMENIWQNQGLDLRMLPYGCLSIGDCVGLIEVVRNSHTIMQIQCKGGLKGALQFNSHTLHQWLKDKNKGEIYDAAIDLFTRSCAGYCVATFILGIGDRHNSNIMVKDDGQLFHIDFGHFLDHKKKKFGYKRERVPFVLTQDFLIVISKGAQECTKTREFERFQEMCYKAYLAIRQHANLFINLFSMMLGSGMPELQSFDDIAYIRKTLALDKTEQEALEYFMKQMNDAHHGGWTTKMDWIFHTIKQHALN", "assay": "PI3K subunit activity ELISA", "format": "biochemical", "details": "100 nM", "description": "(§3) Relative activity is the ratio of respective treated groups to their non-treated controls.\n(§4) Applicant also included a control scramble peptide containing the antennapedia sequence followed by the amino acid sequence of Ante-Selectide-18 randomly scrambled. […] Applicant reports that this drug is not effective at inhibiting the kinase activity of p110b or other PI3K subunits at 100 nM, showing the promise of the Ante-Selectide-18 peptide as a potent selective p110b inhibitor at a low dose."}, "p110γ": {"target": "p110γ (Homo sapiens, UniProt P48736)", "sequence (P48736 whole entry)": "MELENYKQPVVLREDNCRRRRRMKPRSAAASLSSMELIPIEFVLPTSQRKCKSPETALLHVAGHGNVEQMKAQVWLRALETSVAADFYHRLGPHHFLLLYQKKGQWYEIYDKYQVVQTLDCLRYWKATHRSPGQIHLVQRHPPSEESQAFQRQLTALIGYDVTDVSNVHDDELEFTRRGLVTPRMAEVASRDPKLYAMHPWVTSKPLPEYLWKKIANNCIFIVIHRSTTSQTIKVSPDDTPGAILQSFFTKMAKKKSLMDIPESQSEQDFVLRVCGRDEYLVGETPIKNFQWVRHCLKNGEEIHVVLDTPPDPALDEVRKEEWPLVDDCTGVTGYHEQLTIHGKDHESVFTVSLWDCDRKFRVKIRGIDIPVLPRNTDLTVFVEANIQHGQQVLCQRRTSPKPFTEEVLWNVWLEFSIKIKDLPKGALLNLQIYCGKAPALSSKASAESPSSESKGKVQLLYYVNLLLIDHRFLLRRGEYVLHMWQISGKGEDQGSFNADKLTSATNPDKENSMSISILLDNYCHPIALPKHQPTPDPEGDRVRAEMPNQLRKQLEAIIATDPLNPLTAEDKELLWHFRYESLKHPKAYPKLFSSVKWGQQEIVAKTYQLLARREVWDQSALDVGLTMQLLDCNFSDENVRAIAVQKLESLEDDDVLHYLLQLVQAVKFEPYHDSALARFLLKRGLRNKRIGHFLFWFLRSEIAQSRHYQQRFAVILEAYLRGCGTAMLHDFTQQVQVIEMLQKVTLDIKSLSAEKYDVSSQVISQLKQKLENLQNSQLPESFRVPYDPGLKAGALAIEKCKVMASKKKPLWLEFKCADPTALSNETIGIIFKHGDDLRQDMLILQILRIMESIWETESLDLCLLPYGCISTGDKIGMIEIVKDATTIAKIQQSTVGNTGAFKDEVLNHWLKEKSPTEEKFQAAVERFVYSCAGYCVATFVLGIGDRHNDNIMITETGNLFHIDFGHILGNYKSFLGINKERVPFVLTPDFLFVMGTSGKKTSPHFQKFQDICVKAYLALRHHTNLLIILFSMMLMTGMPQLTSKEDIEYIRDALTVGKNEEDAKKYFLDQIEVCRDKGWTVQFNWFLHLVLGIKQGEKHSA", "assay": "PI3K subunit activity ELISA", "format": "biochemical", "details": "100 nM", "description": "as §3, §4"}, "p110δ": {"target": "p110δ (Homo sapiens, UniProt O00329)", "sequence (O00329 whole entry)": "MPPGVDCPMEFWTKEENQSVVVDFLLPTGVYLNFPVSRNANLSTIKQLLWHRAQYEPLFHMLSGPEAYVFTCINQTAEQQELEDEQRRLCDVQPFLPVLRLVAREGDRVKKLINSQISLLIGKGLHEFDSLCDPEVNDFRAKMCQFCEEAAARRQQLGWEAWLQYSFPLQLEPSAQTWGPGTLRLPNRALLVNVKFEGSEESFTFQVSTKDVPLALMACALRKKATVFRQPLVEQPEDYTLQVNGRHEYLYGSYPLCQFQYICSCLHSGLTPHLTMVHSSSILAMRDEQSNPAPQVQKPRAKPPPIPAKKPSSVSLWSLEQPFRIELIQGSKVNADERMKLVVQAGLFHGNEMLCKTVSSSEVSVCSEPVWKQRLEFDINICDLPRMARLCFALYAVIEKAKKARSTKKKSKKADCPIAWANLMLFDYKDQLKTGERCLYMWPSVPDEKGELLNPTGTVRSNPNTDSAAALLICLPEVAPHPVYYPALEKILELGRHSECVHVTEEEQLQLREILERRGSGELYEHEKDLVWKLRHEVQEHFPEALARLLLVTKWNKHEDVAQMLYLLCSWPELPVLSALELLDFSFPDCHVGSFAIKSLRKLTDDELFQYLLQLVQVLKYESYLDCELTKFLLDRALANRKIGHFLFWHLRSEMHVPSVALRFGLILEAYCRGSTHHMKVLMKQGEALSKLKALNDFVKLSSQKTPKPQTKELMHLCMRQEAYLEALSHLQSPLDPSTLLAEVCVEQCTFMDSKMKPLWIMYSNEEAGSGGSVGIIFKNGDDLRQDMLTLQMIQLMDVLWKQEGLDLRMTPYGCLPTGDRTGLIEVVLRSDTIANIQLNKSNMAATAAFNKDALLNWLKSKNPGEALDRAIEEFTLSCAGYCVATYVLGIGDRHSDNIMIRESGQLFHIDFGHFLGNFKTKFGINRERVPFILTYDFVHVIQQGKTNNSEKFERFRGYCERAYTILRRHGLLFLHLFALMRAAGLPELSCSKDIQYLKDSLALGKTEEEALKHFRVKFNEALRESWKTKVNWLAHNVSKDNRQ", "sequence (P27986 whole entry partner)": "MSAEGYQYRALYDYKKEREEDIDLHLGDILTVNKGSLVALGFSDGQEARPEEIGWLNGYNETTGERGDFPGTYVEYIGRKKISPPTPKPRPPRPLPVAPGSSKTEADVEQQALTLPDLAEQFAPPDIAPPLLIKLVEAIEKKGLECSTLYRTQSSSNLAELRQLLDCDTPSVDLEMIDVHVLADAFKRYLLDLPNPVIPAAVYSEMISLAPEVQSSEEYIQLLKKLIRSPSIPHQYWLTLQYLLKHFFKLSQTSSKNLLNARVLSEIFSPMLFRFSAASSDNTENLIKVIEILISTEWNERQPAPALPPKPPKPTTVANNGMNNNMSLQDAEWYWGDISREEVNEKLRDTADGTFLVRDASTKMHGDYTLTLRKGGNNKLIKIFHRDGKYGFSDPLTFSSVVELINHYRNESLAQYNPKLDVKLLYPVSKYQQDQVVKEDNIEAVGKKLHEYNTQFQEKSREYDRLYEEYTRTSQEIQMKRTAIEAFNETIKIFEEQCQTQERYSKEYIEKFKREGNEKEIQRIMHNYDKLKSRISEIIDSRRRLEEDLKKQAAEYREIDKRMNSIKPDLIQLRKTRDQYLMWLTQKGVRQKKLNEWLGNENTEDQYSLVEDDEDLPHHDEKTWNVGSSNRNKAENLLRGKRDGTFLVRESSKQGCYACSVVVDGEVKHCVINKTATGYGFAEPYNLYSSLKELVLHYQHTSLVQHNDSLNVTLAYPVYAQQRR", "assay": "PI3K subunit activity ELISA", "format": "biochemical", "details": "100 nM", "description": "as §3, §4"}}, "data": [{"smiles": "Cc1cc(C(C)Nc2ccccc2)c2nc(N3CCOCC3)cc(=O)n2c1", "note": "(stereo not shown) [TGX-221]", "values": [{"measurement": "effect of TGX-221 plus TMZ combination on astrocytes", "setting": "astrocytes", "result": "did not harm astrocytes"}, {"measurement": "TMZ sensitivity", "setting": "U87MG cells", "result": "increased TMZ sensitivity"}, {"measurement": "TMZ sensitivity", "setting": "SF295 cells", "result": "increased TMZ sensitivity"}, {"measurement": "tumor growth in mice", "setting": "tumor growth in mice", "result": "slow down tumor growth"}, {"measurement": "activity of PI3K subunit p110c", "setting": "p110c", "result": "not effective"}, {"measurement": "activity of PI3K subunit p110γ", "setting": "p110γ", "result": "not effective"}, {"measurement": "activity of PI3K subunit p110δ", "setting": "p110δ", "result": "not effective"}]}]}
